Measurements taken from PubChem BioAssay (NCI).
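GI50 marks 50% less growth. TGI denotes the concentration required for complete inhibition of growth.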

Key:
Experiment in all cases: NCI anticancer screen, dose series, 384-well format
MDA-MB-435 melanoma = test system: MDA-MB-435 melanoma
SR leukemia = test system: SR leukemia
NCI-H460 NSCLC = test system: NCI-H460 NSCLC
OVCAR-4 ovarian = test system: OVCAR-4 ovarian
HT29 colon = test system: HT29 colon
SNB-75 CNS = test system: SNB-75 CNS
MCF7 breast = test system: MCF7 breast
MOLT-4 leukemia = test system: MOLT-4 leukemia
RXF 393 renal = test system: RXF 393 renal
SF-539 CNS = test system: SF-539 CNS
SN12C renal = test system: SN12C renal
MDA-MB-468 breast = test system: MDA-MB-468 breast
NCI-H522 lung = test system: NCI-H522 lung
MDA-MB-231 breast = test system: MDA-MB-231 breast
U251 glioblastoma = test system: U251 glioblastoma
HCT-15 colon = test system: HCT-15 colon
SNB-19 CNS = test system: SNB-19 CNS
UO-31 renal = test system: UO-31 renal
ACHN renal = test system: ACHN renal
KM12 colon = test system: KM12 colon
NCI-H322M lung = test system: NCI-H322M lung
NCI-H23 lung = test system: NCI-H23 lung
HCT-116 colon = test system: HCT-116 colon
HCC-2998 colon = test system: HCC-2998 colon
SK-OV-3 ovarian = test system: SK-OV-3 ovarian
SW-620 colon = test system: SW-620 colon
RPMI-8226 leukemia = test system: RPMI-8226 leukemia
EKVX NSCLC = test system: EKVX NSCLC
HS 578T breast = test system: HS 578T breast
DU-145 prostate = test system: DU-145 prostate
TK-10 renal = test system: TK-10 renal
SF-268 CNS = test system: SF-268 CNS
NCI/ADR-RES ovarian = test system: NCI/ADR-RES ovarian
LOX IMVI melanoma = test system: LOX IMVI melanoma
SK-MEL-5 melanoma = test system: SK-MEL-5 melanoma
HL-60(TB) leukemia = test system: HL-60(TB) leukemia
K-562 leukemia = test system: K-562 leukemia
BT-549 breast = test system: BT-549 breast
SK-MEL-28 melanoma = test system: SK-MEL-28 melanoma
UACC-257 melanoma = test system: UACC-257 melanoma
786-0 renal = test system: 786-0 renal
MALME-3M melanoma = test system: MALME-3M melanoma
A498 renal = test system: A498 renal
T-47D breast = test system: T-47D breast
NCI-H226 lung = test system: NCI-H226 lung
COLO 205 colon = test system: COLO 205 colon
IGROV1 ovarian = test system: IGROV1 ovarian
M14 melanoma = test system: M14 melanoma
HOP-92 NSCLC = test system: HOP-92 NSCLC
SF-295 CNS = test system: SF-295 CNS
HOP-62 NSCLC = test system: HOP-62 NSCLC
OVCAR-8 ovarian = test system: OVCAR-8 ovarian
CAKI-1 renal = test system: CAKI-1 renal
UACC-62 melanoma = test system: UACC-62 melanoma
PC-3 prostate = test system: PC-3 prostate
CCRF-CEM leukemia = test system: CCRF-CEM leukemia
OVCAR-3 ovarian = test system: OVCAR-3 ovarian
A549 NSCLC = test system: A549 NSCLC

## CNCc1ccc(-c2cc(-c3nc(-c4ccc(S(=O)(=O)C(C)C)cc4)cnc3N)on2)cc1
MDA-MB-435 melanoma
  GI50: 484 nM
  TGI: 1600 nM
SR leukemia
  TGI: 18.5 nM
NCI-H460 NSCLC
  GI50: 57.5 nM
  TGI: 334 nM
OVCAR-4 ovarian
  GI50: 313 nM
  TGI: 1310 nM
HT29 colon
  GI50: 324 nM
  TGI: 1060 nM
SNB-75 CNS
  GI50: 1150 nM
  TGI: 2380 nM
MCF7 breast
  GI50: 105 nM
  TGI: 1250 nM
MOLT-4 leukemia
  GI50: 66.3 nM
  TGI: 204 nM
RXF 393 renal
  GI50: 216 nM
  TGI: 791 nM
SF-539 CNS
  GI50: 135 nM
  TGI: 310 nM
SN12C renal
  GI50: 1290 nM
  TGI: 5490 nM
MDA-MB-468 breast
  GI50: 570 nM
  TGI: 1850 nM
NCI-H522 lung
  GI50: 6610 nM
  TGI: 20200 nM
MDA-MB-231 breast
  GI50: 1210 nM
  TGI: 2730 nM
U251 glioblastoma
  GI50: 460 nM
  TGI: 1660 nM
HCT-15 colon
  GI50: 127 nM
  TGI: 315 nM
SNB-19 CNS
  GI50: 1130 nM
  TGI: 2480 nM
UO-31 renal
  GI50: 285 nM
  TGI: 1400 nM
ACHN renal
  GI50: 151 nM
  TGI: 1240 nM
KM12 colon
  GI50: 131 nM
  TGI: 559 nM
NCI-H322M lung
  GI50: 139 nM
  TGI: 1180 nM
NCI-H23 lung
  GI50: 162 nM
  TGI: 916 nM
HCT-116 colon
  GI50: 242 nM
  TGI: 1330 nM
HCC-2998 colon
  GI50: 29.5 nM
  TGI: 192 nM
SK-OV-3 ovarian
  GI50: 242 nM
  TGI: 1360 nM
SW-620 colon
  GI50: 267 nM
  TGI: 1260 nM
RPMI-8226 leukemia
  GI50: 132 nM
  TGI: 355 nM
EKVX NSCLC
  GI50: 1000 nM
  TGI: 2230 nM
HS 578T breast
  GI50: 138 nM
  TGI: 454 nM
DU-145 prostate
  GI50: 250 nM
  TGI: 1320 nM
TK-10 renal
  GI50: 57.3 nM
  TGI: 347 nM
SF-268 CNS
  GI50: 781 nM
  TGI: 2060 nM
NCI/ADR-RES ovarian
  GI50: 1310 nM
  TGI: 2680 nM
LOX IMVI melanoma
  GI50: 303 nM
  TGI: 1400 nM
SK-MEL-5 melanoma
  GI50: 1320 nM
  TGI: 2600 nM
HL-60(TB) leukemia
  GI50: 114 nM
  TGI: 248 nM
K-562 leukemia
  GI50: 250 nM
  TGI: 1170 nM
BT-549 breast
  GI50: 173 nM
  TGI: 489 nM
SK-MEL-28 melanoma
  GI50: 1420 nM
  TGI: 2730 nM
UACC-257 melanoma
  GI50: 248 nM
  TGI: 870 nM
786-0 renal
  GI50: 150 nM
  TGI: 486 nM
MALME-3M melanoma
  GI50: 307 nM
  TGI: 1330 nM
A498 renal
  GI50: 42.2 nM
  TGI: 183 nM
T-47D breast
  GI50: 10400 nM
  TGI: 22200 nM
NCI-H226 lung
  GI50: 3070 nM
  TGI: 9520 nM
COLO 205 colon
  GI50: 1040 nM
  TGI: 6580 nM
IGROV1 ovarian
  GI50: 211 nM
  TGI: 1340 nM
M14 melanoma
  GI50: 318 nM
  TGI: 1140 nM
HOP-92 NSCLC
  GI50: 336 nM
  TGI: 1410 nM
SF-295 CNS
  GI50: 1060 nM
  TGI: 4100 nM
HOP-62 NSCLC
  GI50: 291 nM
  TGI: 1460 nM
OVCAR-8 ovarian
  GI50: 534 nM
  TGI: 1770 nM
CAKI-1 renal
  GI50: 735 nM
  TGI: 2050 nM
UACC-62 melanoma
  GI50: 1060 nM
  TGI: 2240 nM
PC-3 prostate
  GI50: 506 nM
  TGI: 2040 nM
CCRF-CEM leukemia
  GI50: 40.9 nM
  TGI: 161 nM
OVCAR-3 ovarian
  GI50: 145 nM
  TGI: 1500 nM
A549 NSCLC
  GI50: 427 nM
  TGI: 1810 nM

## CCCCS(=O)c1sc2nc(-c3cccs3)cc(-c3ccccc3)c2c1N (configuration not stated)
MDA-MB-435 melanoma
  GI50: 36100 nM
  TGI: > 100000 nM
SR leukemia
  GI50: 3730 nM
  TGI: 8780 nM
NCI-H460 NSCLC
  GI50: 13700 nM
  TGI: 32400 nM
OVCAR-4 ovarian
  GI50: 30400 nM
  TGI: > 100000 nM
HT29 colon
  GI50: 26000 nM
  TGI: > 100000 nM
SNB-75 CNS
  GI50: 27200 nM
  TGI: > 100000 nM
MCF7 breast
  GI50: 13500 nM
  TGI: 90700 nM
MOLT-4 leukemia
  GI50: 6070 nM
  TGI: 18100 nM
RXF 393 renal
  GI50: 20400 nM
  TGI: 95500 nM
SF-539 CNS
  GI50: 23900 nM
  TGI: 52200 nM
SN12C renal
  GI50: 65000 nM
  TGI: > 100000 nM
MDA-MB-468 breast
  GI50: 15000 nM
  TGI: 42700 nM
NCI-H522 lung
  GI50: 17000 nM
  TGI: 90500 nM
MDA-MB-231 breast
  GI50: 25700 nM
  TGI: > 100000 nM
U251 glioblastoma
  GI50: 23200 nM
  TGI: > 100000 nM
HCT-15 colon
  GI50: 19100 nM
  TGI: > 100000 nM
SNB-19 CNS
  GI50: 32500 nM
  TGI: > 100000 nM
UO-31 renal
  GI50: 29200 nM
  TGI: > 100000 nM
ACHN renal
  GI50: 31700 nM
  TGI: > 100000 nM
KM12 colon
  GI50: > 100000 nM
  TGI: > 100000 nM
NCI-H322M lung
  GI50: 32200 nM
  TGI: > 100000 nM
NCI-H23 lung
  GI50: 21400 nM
  TGI: 97900 nM
HCT-116 colon
  GI50: 26000 nM
  TGI: 91000 nM
HCC-2998 colon
  GI50: 27200 nM
  TGI: 63300 nM
SK-OV-3 ovarian
  GI50: 31900 nM
  TGI: > 100000 nM
SW-620 colon
  GI50: > 100000 nM
  TGI: > 100000 nM
RPMI-8226 leukemia
  GI50: 4380 nM
  TGI: 14600 nM
EKVX NSCLC
  GI50: 27800 nM
  TGI: > 100000 nM
HS 578T breast
  GI50: 14100 nM
  TGI: 76200 nM
DU-145 prostate
  GI50: 28700 nM
  TGI: > 100000 nM
TK-10 renal
  GI50: 29500 nM
  TGI: > 100000 nM
SF-268 CNS
  GI50: > 100000 nM
  TGI: > 100000 nM
NCI/ADR-RES ovarian
  GI50: 14000 nM
  TGI: 59000 nM
LOX IMVI melanoma
  GI50: 16700 nM
  TGI: 38100 nM
SK-MEL-5 melanoma
  GI50: 13800 nM
  TGI: 26800 nM
K-562 leukemia
  GI50: 8470 nM
  TGI: > 100000 nM
BT-549 breast
  GI50: 16500 nM
  TGI: 45600 nM
SK-MEL-28 melanoma
  GI50: > 100000 nM
  TGI: > 100000 nM
UACC-257 melanoma
  GI50: 26900 nM
  TGI: 84100 nM
786-0 renal
  GI50: 27900 nM
  TGI: > 100000 nM
MALME-3M melanoma
  GI50: 28800 nM
  TGI: 73200 nM
A498 renal
  GI50: 21200 nM
  TGI: 79200 nM
T-47D breast
  GI50: 19200 nM
  TGI: > 100000 nM
NCI-H226 lung
  GI50: 25700 nM
  TGI: 74600 nM
COLO 205 colon
  GI50: 34400 nM
  TGI: > 100000 nM
IGROV1 ovarian
  GI50: 38600 nM
  TGI: > 100000 nM
M14 melanoma
  GI50: > 100000 nM
  TGI: > 100000 nM
HOP-92 NSCLC
  GI50: 26400 nM
  TGI: 99200 nM
SF-295 CNS
  GI50: 19600 nM
  TGI: 96500 nM
HOP-62 NSCLC
  GI50: 29900 nM
  TGI: 93800 nM
OVCAR-8 ovarian
  GI50: 25200 nM
  TGI: > 100000 nM
CAKI-1 renal
  GI50: 31900 nM
  TGI: > 100000 nM
UACC-62 melanoma
  GI50: > 100000 nM
  TGI: > 100000 nM
CCRF-CEM leukemia
  GI50: 11400 nM
  TGI: 28300 nM
OVCAR-3 ovarian
  GI50: 16700 nM
  TGI: 43500 nM
A549 NSCLC
  GI50: 12500 nM
  TGI: > 100000 nM
